Assay results: the supplement of paper PMC10307832

Key:
Assay in all cases: relative viability (nuclei count vs DMSO), 5 days (fraction); higher = more cells survive
Decitabine + Trametinib = compound: Nc1ncn([C@H]2C[C@H](O)[C@@H](CO)O2)c(=O)n1 [Decitabine] + CC(=O)Nc1cccc(-n2c(=O)n(C3CC3)c(=O)c3c(Nc4ccc(I)cc4F)n(C)c(=O)c(C)c32)c1 [Trametinib] (partner 0.02 µM)
In short: (§1)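 Lung cancer cell lines were seeded in 1536-well plates and dosed by pin tool the next day, with either a single drug or a fixed anchor-drug dose combined with five library-drug doses (not always all listed) spaced in √10 steps. Five days later, one step fixed the cells and stained their nuclei (final 0.05% Triton X-100, 1% formaldehyde, 1 ug/ml Hoechst), and nuclei were counted on 4× images. Relative viability is the nuclei count in treated wells divided by the count in vehicle wells, and each value is the median of duplicate plates.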

Halofuginone + Lapatinib = compound: O=C(C[C@H]1NCCC[C@@H]1O)Cn1cnc2cc(Br)c(Cl)cc2c1=O (racemic) [Halofuginone] + CS(=O)(=O)CCNCc1ccc(-c2ccc3ncnc(Nc4ccc(OCc5cccc(F)c5)c(Cl)c4)c3c2)o1 [Lapatinib] (partner 2 µM)
In short: as §1

Decitabine + Vorinostat = compound: Nc1ncn([C@H]2C[C@H](O)[C@@H](CO)O2)c(=O)n1 [Decitabine] + O=C(CCCCCCC(=O)Nc1ccccc1)NO [Vorinostat] (partner 1 µM)
In short: as §1

[1] = compound: O=C(C[C@H]1NCCC[C@@H]1O)Cn1cnc2cc(Br)c(Cl)cc2c1=O (racemic) [Halofuginone] + CC(C)C[C@H](NC(=O)[C@H](Cc1ccccc1)NC(=O)c1cnccn1)B(O)O [Bortezomib] (partner 0.002 µM)
In short: as §1

Row | Cell Line | relative viability (Decitabine + Trametinib; first compound 0.04 µM) | relative viability (Decitabine + Trametinib; first compound 0.1265 µM) | relative viability (Decitabine + Trametinib; first compound 0.4 µM) | relative viability (Decitabine + Trametinib; first compound 1.265 µM) | relative viability (Decitabine + Trametinib; first compound 4 µM) | relative viability (Halofuginone + Lapatinib; first compound 0.001 µM) | relative viability (Halofuginone + Lapatinib; first compound 0.003162 µM) | relative viability (Halofuginone + Lapatinib; first compound 0.01 µM) | relative viability (Halofuginone + Lapatinib; first compound 0.03162 µM) | relative viability (Halofuginone + Lapatinib; first compound 0.1 µM) | relative viability (Decitabine + Vorinostat; first compound 0.04 µM) | relative viability (Decitabine + Vorinostat; first compound 0.1265 µM) | relative viability (Decitabine + Vorinostat; first compound 0.4 µM) | relative viability (Decitabine + Vorinostat; first compound 1.265 µM) | relative viability (Decitabine + Vorinostat; first compound 4 µM) | relative viability ([1]; first compound 0.001 µM) | relative viability ([1]; first compound 0.003162 µM) | relative viability ([1]; first compound 0.01 µM) | relative viability ([1]; first compound 0.03162 µM) | relative viability ([1]; first compound 0.1 µM)
1 | NCI-H1355 | 0.371 | 0.382 | 0.337 | 0.224 | 0.248 | 1.03 | 1.03 | 0.972 | 0.984 | 0.891 | 0.496 | 0.554 | 0.34 | 0.3 | 0.256 | 1.13 | 1.19 | 1.18 | 1.24 | 0.951
2 | NCI-H1437 | 0.444 | 0.412 | 0.404 | 0.337 | 0.342 | 0.835 | 0.91 | 0.721 | 0.755 | 0.465 | 0.522 | 0.542 | 0.444 | 0.373 | 0.421 | 0.548 | 0.604 | 0.504 | 0.483 | 0.253
3 | NCI-H1650 | 0.369 | 0.642 | 0.536 | 0.326 | 0.287 | 0.594 | 0.787 | 0.677 | 0.704 | 0.194 | 0.358 | 0.367 | 0.318 | 0.195 | 0.215 | 0.234 | 0.24 | 0.208 | 0.221 | 0.203
4 | NCI-H1651 | 0.787 | 0.757 | 0.692 | 0.622 | 0.487 | 0.939 | 0.908 | 0.763 | 0.768 | 0.34 | 0.478 | 0.456 | 0.483 | 0.296 | 0.407 | 0.93 | 0.972 | 0.915 | 0.898 | 0.903
5 | NCI-H1666 | 0.785 | 0.873 | 0.713 | 0.783 | 0.836 | 0.685 | 0.826 | 0.626 | 0.67 | 0.458 | 0.943 | 1.05 | 0.922 | 0.894 | 0.836 | 0.856 | 0.902 | 0.791 | 0.85 | 0.618
6 | NCI-H1734 | 0.595 | 0.575 | 0.404 | 0.313 | 0.333 | 1.12 | 1.02 | 1.05 | 0.986 | 0.812 | 0.698 | 0.685 | 0.48 | 0.297 | 0.306 | 1.14 | 0.919 | 0.939 | 0.814 | 0.632
7 | NCI-H1755 | 0.653 | 0.743 | 0.688 | 0.564 | 0.488 | 0.993 | 0.992 | 0.992 | 1.04 | 0.997 | 0.637 | 0.608 | 0.611 | 0.403 | 0.429 | 0.968 | 0.913 | 0.94 | 0.99 | 0.816
8 | NCI-H1915 | 0.233 | 0.223 | 0.218 | 0.192 | 0.184 | 0.977 | 0.983 | 0.942 | 0.96 | 0.984 | 0.263 | 0.235 | 0.206 | 0.158 | 0.155 | 0.522 | 1.05 | 0.93 | 1 | 0.973
9 | NCI-H1975 | 0.284 | 0.272 | 0.219 | 0.233 | 0.219 | 0.881 | 0.873 | 0.766 | 0.692 | 0.385 | 0.508 | 0.412 | 0.375 | 0.281 | 0.291 | 0.432 | 0.383 | 0.402 | 0.339 | 0.168
10 | NCI-H1993 | 0.491 | 0.431 | 0.394 | 0.432 | 0.511 | 0.792 | 0.86 | 0.862 | 0.789 | 0.823 | 0.628 | 0.737 | 0.614 | 0.399 | 0.487 | 1.27 | 1.14 | 1.07 | 1.27 | 0.786
11 | NCI-H2009 | 0.227 | 0.255 | 0.229 | 0.181 | 0.252 | 1.06 | 1.01 | 0.887 | 0.83 | 0.409 | 0.474 | 0.446 | 0.356 | 0.285 | 0.335 | 1.07 | 1.28 | 0.95 | 0.799 | 0.32
12 | NCI-H2023 | 0.473 | 0.464 | 0.296 | 0.196 | 0.197 | 0.8 | 0.809 | 0.874 | 0.494 | 0.0821 | 0.305 | 0.389 | 0.23 | 0.142 | 0.119 | 0.981 | 1.07 | 0.957 | 0.421 | 0.0849
